In US11452737B2, “Compositions and methods for treating vascular malformation and related conditions” (priority 2015, dated 2022):
≈ marks a conversion by molar mass, not a printed value. Like-named read-outs stand apart in the source and are kept apart here.

Columns and labels:
[1] = system: HEK293T cells transiently transfected with empty, wildtype, R183Q, or Q209L constructs; assay: MTT assay dose response curve for puromycin, 24 well plate, transiently transfected cells; type: cell-based; conditions: Homo sapiens, HEK-293T, 72 h, puromycin 3 days, read-out: Half maximal inhibitory concentration (IC50), cell number
Method: FIG. 1 is a plot showing response of cells as a function of puromycin concentration. HEK293T cells were transiently transfected with empty, wildtype, R183Q, or Q209L constructs and then exposed to puromycin for 3 days before cell number was assessed by MTT assay in 24 well plate.
To determine whether mutations in GNAQ conferred increased sensitivity to puromycin, an MTT (3-(4,5-dimethylthiazol-2-yl)-2,5-diphenyltetrazolium bromide) assay dose response curve was done with HEK239 cells (including standard curve and normalization) after transient transfection. Puromycin exposure in HEK293 cells transiently transfected with R183Q or Q209L (no puromycin selection) over greater than a 100 fold dose range was then tested.
HEK 293 cells (5×10^5 cells/well) in 6 well-plates were transient transfected with 1 μg of construct (pcDNA3.1-GNAQ, pcDAN3.1-R183Q and pcDNA3.1-Q209L) per well. Twenty-four (24) hours later, the cells were digested, counted and aliquoted into 24 well plates (0.8×10^5 cells/well). After another 24 hours, the transfected cells were incubated with various concentrations of puromycin.
Three days later, the relative cell numbers were detected using MTT assay reagents (CellTiter 96® Aqueous One Solution Cell Proliferation Assay Reagents) as follows. After being thawed at room temperature, 40 μl the CellTiter 96® Aqueous One Solution Reagent was pipetted into each well of the 24-well assay plate containing the samples in 200 μl of culture medium. Then, the plates were incubated at 37° C. for 2 hours in a humidified, 5% CO2 atmosphere. The supernatants were transferred into 96-well plates. The absorbance at 490 nm of each sample was read by using a plate reader (SpectraMax M5). Optical density directly correlated with viable cell quantity.
A software program (GraphPad Prism) was used to generate Dose Response Curves. A non-linear regression was done to graph the Log [puromycin molar concentration] versus Maximal Inhibitory Response. The GraphPad program was used to calculate the IC50 of puromycin for each cell line (dose that gives a 50% maximal response) and the 95% confidence intervals. A 2-way ANOVA (Dose by Construct) was done to determine if there is a significant effect of construct upon puromycin effect with p-value of <0.05 used to determine significance.

[2] = system: HEK293T cells transiently transfected with pcDNA3.1-E, pcDNA3.1-GNAQ, pcDNA3.1-R183Q, pcDNA3.1-Q209L; assay: Puromycin dose response curve, CellTiter 96 cell proliferation assay, 96-well plates; type: cell-based; conditions: Homo sapiens, HEK-293T, 72 h, 3 days, read-out: half maximal inhibitory concentration (IC50)
Method: FIG. 5 is a plot showing a dose response curve for puromycin. HEK 293T cells (5×10^5 cells/well in six-well plate) were transiently transfected with pcDNA3.1-E, pcDNA3.1-GNAQ, pcDNA3.1-R183Q, pcDNA3.1-Q209L. Twenty-four (24) hours later, the cells were digested, counted and aliquoted into 96-well plates. Twenty-four (24) hours later, the cells were incubated with a series of puromycin concentrations. Three days later, the relative cell numbers were detected using a cell proliferation assay.
A dose response curve (cell number in response to puromycin concentration) for HEK293T cells transiently transfected pcDNA3.1-E, pcDNA3.1-GNAQ, pcDNA3.1-R183Q and pcDNA3.1-Q209L and treated with puromycin is shown in FIG. 5. Cells expressing either the pcDNA3.1-R183Q or pcDNA3.1-Q209L plasmids were more sensitive to puromycin compared with cells transfected with the pcDNA3.1-E or pcDNA3.1-GNAQ plasmids.
HEK293T cells (5×10^5 cells/well) in 6 well-plates were transiently transfected with 1 μg (pcDNA3.1-E, pcDNA3.1-GNAQ, pcDAN3.1-R183Q and pcDNA3.1-Q209L) per well using FUGENE 6®. Twenty-four (24) hours later, the cells were digested, counted and aliquoted into 96-well plates (1×10^4 cells/well). After another 24 hours, the transfected cells were incubated with a 100-fold concentration series of puromycin. Three days later, the relative cell numbers were detected using CELLTITER 96® Aqueous One Solution Cell Proliferation Assay Reagents (Promega #G3582) as follows: After being thawed at room temperature, 10 μl of CELLTITER 96® Aqueous One Solution Reagent was pipet into each well of the 96-well assay plate containing the samples in 100 μl of culture medium. Then, the plates were incubated at 37° C. for 2 hours in a humidified, 5% CO2 atmosphere. The absorbance at 490 nm of each sample was read by using SpectraMAX M5. Readings were normalized to that in pcDNA3.1-GNAQ cells receiving vehicle. Results were analyzed in GraphPad. Experiment was done in quadruplicate samples.

untransformed HMECs = assay: Puromycin dose response curve in untransformed HMECs; type: cell-based, human; conditions: 1 ug/ml puromycin, after 48 hours
[3] = system: HEK293T cells with pcDNA3.1-E, -GNAQ, -R183Q or -Q209L plasmids; assay: RT-PCR gene expression with or without puromycin treatment; type: cell-based, human
Method: A panel of genes, important to the regulation of the pathways downstream of GNAQ, were evaluated by RT-PCR in mRNA samples gathered from cells with the pcDNA3.1-E, pcDNA3.1-GNAQ, pcDNA3.1-R183Q or pcDNA3.1-Q209L plasmids with or without puromycin treatment of 0.04 ug/ul (FIGS. 6A-6F, n=3 per group from 3 separate experiments).
HEK293T cells (5×10^5 cells/well) were transfected with 1 μg plasmid (pcDNA3.1-GNAQ, pcDAN3.1-R183Q or pcDNA3.1-Q209L) in 6-well plates. Twenty-four (24) hours later, cells were digested and re-plated into 6-well plates. Twenty-four (24) hours later, the plates were incubated in DMEM (10% FBS) with or without 0.04 μg/ml puromycin. Three days later, total RNA of treated HEK293T cells were isolated by using RNEASY® Mini Kit (QIAGEN) as follows. Media was aspirated, and the cells washed twice with PBS. 350 μl Buffer RLT with B-Mercaptoethanol was added to the each well. The lysate was pipetted into a microcentrifuge tube and pipetted to mix. 1 volume of 70% ethanol was added to the lysate. Lysate was transferred to an RNEASY® spin column placed in a 2 ml collection tube (supplied) and centrifuged. RNEASY® spin column was washed as per kit instructions. 50 μl RNase-free water was added directly to the center of the spin column membrane which was centrifuged for 1 min at 12,000 rpm to elute the RNA. Three separate experiments were performed to obtain triplicate mRNA and protein samples for analysis.
Reverse Transcription was carried out with the using the High Capacity cDNA Reverse Transcription Kits and based on Applied Biosystems' protocol. 2×RT master mix is prepared using the kit components before preparing the reaction plate and kit components allowed to thaw on ice. Referring to one reaction amount of components, the volume of components needed to prepare the required number of reactions was calculated. Then 10 μl of 2×RT master mixes was pipetted into each well of 500 μl PCR clean tubes. 10 μL of RNA sample (1 μg) was pipetted into each tube which is then mixed, centrifuged and then placed in a thermal cycler with the program of (10 min at 25° C., 120 min at 37° C., 5 min at 85° C., then 4° C.). After the thermal cycler, 1 μl RNase H was added into the tubes and incubated at 37° C. for 20 min. Finally, 600 μl Nuclease-free H2O was added into each tube.
The primers for Real-Time PCR were designed online with Primer-BLAST software tool. For each gene, at least three primers at different locations were designed based on the cDNA of the genes. The primer concentrations were normalized and were adjusted to 5 pmol/μ1. The real-time PCR reaction mixture of 20 μl included 10 μl SYBR Green Mix (2×), 2 μl primer pair mix, and 8 μl diluted cDNA solution. The Real-time PCR of loaded samples were run on CFX Connect™ real-time PCR system (Bio-rad) with extension steps of (50° C. 2 min 1 cycle, 95° C. 10 min 1 cycle, 95° C. 15 sec then 60° C. 1 min 40 cycles, 72° C. 10 min, 1 cycle) followed by a melting curve analysis (from 55° C. to 95° C. increments 0.05° C./Sec) to guarantee absence of nonspecific amplification. The primers with a unique peak in melting curve were chosen for next step. The primers were also only used for next experiments after they were confirmed by obtaining the same results from other primers for the same gene. With the final confirmed primers, the RNA levels in triplicate samples, obtained from three separate experiments, were measured.

[4] = system: HEK293T cells with GNAQ constructs; assay: Western blot of protein levels after puromycin treatment; type: cell-based, human
Method: Treated cells were harvested with ice-cold radioimmunoprecipitation assay (RIPA) buffer (150 mM NaCl, 1.0% IGEPAL® CA-630, 0.5% sodium deoxycholate, 0.1% SDS, and 50 mM Tris, pH 8.0) (Sigma-Aldrich) plus phosphatase inhibitor cocktail (Cell signaling technology, #5870) and analyzed by western blot as follows: Quantitative protein samples were denatured in 4×LDS Sample buffer (Invitrogen) at 100° C. for 6 minutes. Samples were then subjected to SDS-PAGE by using Bio-Rad 4-15% gradient gels and transferred to PVDF membrane. The membranes were blocked with Li-cor ODYSSEY® Blocking buffer for 30 minutes at room temperature. Then the membranes were incubated with primary antibody (GaQ 1:125, Santa Cruz Biotechnology, sc-393; p-ERK 1:1000, Cell Signaling Technology, 4370; ERK 1:1000, Cell signaling Technology, 4696; HSP90 1:1000, Cell Signaling Technology, 4877) in a 1:1 solution of Li-cor ODYSSEY® blocking buffer and Tris-Buffered Saline and 0.1% Tween 20 (TBST) overnight at 4° C. The membranes were then washed three times for 10 min each in Tris-Buffered Saline and 0.1% Tween 20 (TBST) then probed with goat anti-mouse (IR-Dye 680RD) or goat anti Rabbit (IR-Dye-800CW) labeled secondary antibody in 1:1 Li-cor ODYSSEY® blocking buffer to TBST for 1 hour at room temperature. […] Bands were quantified using Image J software program.

[5] = all three constructs, puromycin alone, significant

## COc1ccc(C[C@H](N)C(=O)N[C@H]2[C@@H](O)[C@H](n3cnc4c(N(C)C)ncnc43)O[C@@H]2CO)cc1 [puromycin]
[1]; Q209L construct
  IC50: 0.19 µM
[1]; R183Q construct
  IC50: 0.19 µM
[1]; empty construct
  IC50: 0.29 µM
[1]; wildtype GNAQ construct
  IC50: 0.29 µM
[2]; HEK293T with pcDNA3.1-E (empty)
  IC50: 0.084 µg/mL (≈ 0.178 µM)
[2]; HEK293T with pcDNA3.1-GNAQ (wildtype)
  IC50: 0.091 µg/mL (≈ 0.193 µM)
[2]; HEK293T with pcDNA3.1-Q209L
  IC50: 0.051 µg/mL (≈ 0.108 µM)
[2]; HEK293T with pcDNA3.1-R183Q
  IC50: 0.064 µg/mL (≈ 0.136 µM)
Untransformed HMECs
  cells killed: 100%
[3]; R183Q and Q209L mutant cells, puromycin, compared to wildtype puromycin treated and vehicle treated mutant cells
  ID3 mRNA levels: upregulated
[3]; all three constructs, puromycin alone, not significant
  TRIO mRNA levels: up-regulated
[3]; [5]
  PRKCQ mRNA levels: up-regulated
  TEAD3 mRNA levels: up-regulated
[3]; all three constructs, puromycin alone, significant only in Q209L cells
  PIK3C2B mRNA levels: up-regulated
[3]; cells expressing R183Q or Q209L plasmids, puromycin 0.04 ug/ml
  TSC22D3 mRNA levels: further decreased
[3]; wildtype cells, puromycin 0.04 ug/ml, compared to vehicle treated
  ID3 mRNA levels: up-regulated
[3]; wildtype cells, puromycin 0.04 ug/ml, compared to vehicle treated wildtype
  TSC22D3 mRNA expression: decreased
[4]; puromycin treatment, pcDNA3.1-GNAQ, pcDNA3.1-R183Q or pcDNA3.1-Q209L cells
  ID3 protein levels: further increased
[4]; puromycin versus vehicle treated cells
  Gαq protein levels: No significant differences
